Measured values reported in PubChem BioAssay AID2060601 (Molecular Pharmacology Branch, DTP, NCI, 2025).

Test system: 874868-142-R-J2-PDC complex spheroids, growth % test/control
Experiment: Anticancer human tumor 874868-142-R-J2-PDC patient-derived head and neck squamous carcinoma cell line growth inhibition [CLK]
Settings: for IC50: curve of first compound; for viability, T/C: stronger effect = lower value
Method in brief: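 Multi-cell-type spheroids combined patient-derived tumor cells with HUVEC endothelial cells and human mesenchymal stem cells. Paired agents were dosed in half-log steps down from about clinical Cmax, or from 10 microM where Cmax was unknown.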

[1] = second compound 0.0316 µM, first compound 0.0316 µM
[2] = second compound 0.0316 µM, first compound 0.1 µM
[3] = second compound 0.0316 µM, first compound 0.316 µM
[4] = second compound 0.0316 µM, first compound 1 µM
[5] = second compound 0.0316 µM, first compound 3.16 µM
[6] = second compound 0.0316 µM, first compound 10 µM
[7] = second compound 0.1 µM, first compound 0.0316 µM
[8] = second compound 0.1 µM, first compound 0.1 µM
[9] = second compound 0.1 µM, first compound 0.316 µM
[10] = second compound 0.1 µM, first compound 1 µM
[11] = second compound 0.1 µM, first compound 3.16 µM
[12] = second compound 0.1 µM, first compound 10 µM
[13] = second compound 0.316 µM, first compound 0.0316 µM
[14] = second compound 0.316 µM, first compound 0.1 µM
[15] = second compound 0.316 µM, first compound 0.316 µM
[16] = second compound 0.316 µM, first compound 1 µM
[17] = second compound 0.316 µM, first compound 3.16 µM
[18] = second compound 0.316 µM, first compound 10 µM
[19] = second compound 1 µM, first compound 0.0316 µM
[20] = second compound 1 µM, first compound 0.1 µM
[21] = second compound 1 µM, first compound 0.316 µM
[22] = second compound 1 µM, first compound 1 µM
[23] = second compound 1 µM, first compound 3.16 µM
[24] = second compound 1 µM, first compound 10 µM
[25] = second compound 3.16 µM, first compound 0.0316 µM
[26] = second compound 3.16 µM, first compound 0.1 µM
[27] = second compound 3.16 µM, first compound 0.316 µM
[28] = second compound 3.16 µM, first compound 1 µM
[29] = second compound 3.16 µM, first compound 3.16 µM
[30] = second compound 3.16 µM, first compound 10 µM
[31] = second compound 10 µM, first compound 0.0316 µM
[32] = second compound 10 µM, first compound 0.1 µM
[33] = second compound 10 µM, first compound 0.316 µM
[34] = second compound 10 µM, first compound 1 µM
[35] = second compound 10 µM, first compound 3.16 µM
[36] = second compound 10 µM, first compound 10 µM
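Note: spheroids exposed to the compounds for 7 days.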
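Throughout, for viability, T/C: 100% = DMSO vehicle control viability.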

Work on CC(=O)O[C@H]1C(=O)[C@@]2(C)[C@H]([C@H](OC(=O)c3ccccc3)[C@]3(O)C[C@H](OC(=O)[C@H](O)[C@@H](NC(=O)c4ccccc4)c4ccccc4)C(C)=C1C3(C)C)[C@]1(OC(C)=O)CO[C@@H]1C[C@@H]2O + CNC(=O)c1ccc(Nc2nc(OC3CCCC3)c3c(-c4ccc5nc(C)oc5c4)c[nH]c3n2)c(OC)c1 yielded an IC50 (second compound 0.0316 µM) of under 31.6 nM, an IC50 (second compound 0.1 µM) of under 31.6 nM and an IC50 (second compound 0.316 µM) of over 10000 nM. For the same compound, the IC50 (second compound 1 µM) was under 31.6 nM, the IC50 (second compound 3.16 µM) was under 31.6 nM and the IC50 (second compound 10 µM) was under 31.6 nM. For the same compound, the viability, T/C [1] was 47.4%, the viability, T/C [2] was 33.5% and the viability, T/C [3] was 39.4%. It also gave a viability, T/C [4] of 41.9%, a viability, T/C [5] of 48.9% and a viability, T/C [6] of 66.2%. For the same compound, the viability, T/C [7] was 53.9%, the viability, T/C [8] was 43.9% and the viability, T/C [9] was 50%. The viability, T/C [10] was 55.7%, the viability, T/C [11] was 62.7% and the viability, T/C [12] was 66.5%. For the same compound, the viability, T/C [13] was 54.3%, the viability, T/C [14] was 65.1% and the viability, T/C [15] was 72.6%. It also gave a viability, T/C [16] of 66.5%, a viability, T/C [17] of 77.6% and a viability, T/C [18] of 70.1%. It also gave a viability, T/C [19] of 47.1%, a viability, T/C [20] of 49.9% and a viability, T/C [21] of 53%. For the same compound, the viability, T/C [22] was 62.3%, the viability, T/C [23] was 52.6% and the viability, T/C [24] was 61.9%. For the same compound, the viability, T/C [25] was 47.8%, the viability, T/C [26] was 45.7% and the viability, T/C [27] was 52.4%. The viability, T/C [28] was 51%, the viability, T/C [29] was 57.5% and the viability, T/C [30] was 64.3%. For the same compound, the viability, T/C [31] was 43.7%, the viability, T/C [32] was 53% and the viability, T/C [33] was 58.3%. The viability, T/C [34] was 52.4%, the viability, T/C [35] was 57.6% and the viability, T/C [36] was 50.5%.
For COc1ccc([C@@H](O)c2cc(-c3ncnc4cc(N5CCOCC5)ccc34)c(F)cc2Cl)nn1 + CNC(=O)c1ccc(Nc2nc(OC3CCCC3)c3c(-c4ccc5nc(C)oc5c4)c[nH]c3n2)c(OC)c1, the IC50 (second compound 0.0316 µM) was 2250 nM, the IC50 (second compound 0.1 µM) was 3710 nM and the IC50 (second compound 0.316 µM) was 517 nM. It also gave an IC50 (second compound 1 µM) of under 31.6 nM, an IC50 (second compound 3.16 µM) of under 31.6 nM and an IC50 (second compound 10 µM) of under 31.6 nM. The viability, T/C [1] was 106%, the viability, T/C [2] was 100% and the viability, T/C [3] was 101%. The viability, T/C [4] was 64.5%, the viability, T/C [5] was 47.6% and the viability, T/C [6] was 31.7%. For the same compound, the viability, T/C [7] was 81.5%, the viability, T/C [8] was 89.7% and the viability, T/C [9] was 73.7%. For the same compound, the viability, T/C [10] was 67.5%, the viability, T/C [11] was 52.6% and the viability, T/C [12] was 36.9%. The viability, T/C [13] was 52.7%, the viability, T/C [14] was 60% and the viability, T/C [15] was 55.6%. The viability, T/C [16] was 40.5%, the viability, T/C [17] was 40.3% and the viability, T/C [18] was 23.4%. For the same compound, the viability, T/C [19] was 43.5%, the viability, T/C [20] was 46.5% and the viability, T/C [21] was 40%. For the same compound, the viability, T/C [22] was 29.7%, the viability, T/C [23] was 25.1% and the viability, T/C [24] was 23.1%. For the same compound, the viability, T/C [25] was 37.6%, the viability, T/C [26] was 38.9% and the viability, T/C [27] was 45.2%. The viability, T/C [28] was 32.9%, the viability, T/C [29] was 37% and the viability, T/C [30] was 23.5%. It also gave a viability, T/C [31] of 40.4%, a viability, T/C [32] of 38.6% and a viability, T/C [33] of 39.2%. For the same compound, the viability, T/C [34] was 28.6%, the viability, T/C [35] was 32.3% and the viability, T/C [36] was 18.6%.
Compound COc1cccc2c1C(=O)c1c(O)c3c(c(O)c1C2=O)CC(O)(C(=O)CO)CC3OC1CC(N)C(O)C(C)O1 (stereo unspecified) + CNC(=O)c1ccc(Nc2nc(OC3CCCC3)c3c(-c4ccc5nc(C)oc5c4)c[nH]c3n2)c(OC)c1 has an IC50 (second compound 0.0316 µM) of 73.9 nM, an IC50 (second compound 0.1 µM) of 85.6 nM and an IC50 (second compound 0.316 µM) of 47.2 nM. The IC50 (second compound 1 µM) was under 31.6 nM, the IC50 (second compound 3.16 µM) was under 31.6 nM and the IC50 (second compound 10 µM) was under 31.6 nM. The viability, T/C [1] was 65.8%, the viability, T/C [2] was 40.8% and the viability, T/C [3] was 29.2%. For the same compound, the viability, T/C [4] was 1.04%, the viability, T/C [5] was 0.15% and the viability, T/C [6] was 0.15%. The viability, T/C [7] was 66.7%, the viability, T/C [8] was 45.7% and the viability, T/C [9] was 23.5%. It also gave a viability, T/C [10] of 0.86%, a viability, T/C [11] of 0.16% and a viability, T/C [12] of 3.76%. The viability, T/C [13] was 55.9%, the viability, T/C [14] was 38.6% and the viability, T/C [15] was 16.9%. It also gave a viability, T/C [16] of 0.22%, a viability, T/C [17] of 0.17% and a viability, T/C [18] of 6.83%. The viability, T/C [19] was 32.1%, the viability, T/C [20] was 28.1% and the viability, T/C [21] was 17.6%. For the same compound, the viability, T/C [22] was 0.21%, the viability, T/C [23] was 1.61% and the viability, T/C [24] was 0.16%. It also gave a viability, T/C [25] of 33.2%, a viability, T/C [26] of 27.8% and a viability, T/C [27] of 13.3%. For the same compound, the viability, T/C [28] was 0.19%, the viability, T/C [29] was 1.44% and the viability, T/C [30] was 11.7%. The viability, T/C [31] was 28.5%, the viability, T/C [32] was 30.5% and the viability, T/C [33] was 15.8%. It also gave a viability, T/C [34] of 0.27%, a viability, T/C [35] of 3.05% and a viability, T/C [36] of 5.77%.
